Experimental data published in US20220073554A1, “LINCOSAMIDE ANTIBIOTICS AND USES THEREOF” (President and Fellows of Harvard College, priority 2017, published 2022).
In brackets after ≈: the same amount, converted by molar mass. Read-outs that look alike come from different tables or passages of the source.

Tests used:
Assay type in all cases: cell-based
S. aureus ATCC 29213 = assay: MIC against S. aureus ATCC 29213; conditions: Staphylococcus aureus
S. aureus BAA 977 iErmA = assay: MIC against S. aureus BAA 977 iErmA; conditions: Staphylococcus aureus, BAA977
[1] = tested on: S. aureus MP-549 msr(a) USA 300; assay: MIC against S. aureus MP-549 msr(a) USA 300; conditions: Staphylococcus aureus, USA300, S. aureus MP-549 msr(a) USA 300
S. aureus MMX 3035 cErmA = assay: MIC against S. aureus MMX 3035 cErmA; conditions: Staphylococcus aureus, MMX3035CERMA; S. aureus MMX 3035 cErmA; read-out: MIC
[2] = tested on: S. pneumoniae MMX 3031 cMefA; assay: MIC against S. pneumoniae MMX 3031 cMefA; conditions: Streptococcus pneumoniae, MMX3031CMEFA
[3] = tested on: S. pyogenes MMX 946 Macrolide-Resistant; assay: MIC against S. pyogenes MMX 946 Macrolide-Resistant; conditions: Streptococcus pyogenes; S. pyogenes MMX 946 Macrolide-Resistant (MacRes); read-out: MIC
E. faecalis ATCC 29212 = assay: MIC against E. faecalis ATCC 29212; conditions: Enterococcus faecalis
[4] = tested on: E. faecalis MMX 847 Macrolide-Resistant; assay: MIC against E. faecalis MMX 847 Macrolide-Resistant; conditions: Enterococcus faecalis; E. faecalis MMX 847 Macrolide-Resistant (MacRes); read-out: MIC
H. influenzae ATCC 49247 = assay: MIC against H. influenzae ATCC 49247; conditions: Haemophilus influenzae, ATCC49247
E. coli ATCC 25922 = assay: MIC against E. coli ATCC 25922; conditions: Escherichia coli, ATCC25922
S. pneumoniae ATCC 49619 = assay: MIC against S. pneumoniae ATCC 49619; conditions: Streptococcus pneumoniae, ATCC49619
S. pyogenes ATCC 19615 = assay: MIC against S. pyogenes ATCC 19615; conditions: Streptococcus pyogenes, ATCC19615; S. pyogenes ATCC 19615; read-out: MIC
E. coli ATCC 15922 = assay: MIC against E. coli ATCC 15922; conditions: Escherichia coli, ATCC15922; E. coli ATCC 15922; read-out: MIC
E. coli MP-9 ΔTolC = assay: MIC against E. coli MP-9 ΔTolC; conditions: Escherichia coli
[5] = tested on: E. coli MP-74 LptD mutant; assay: MIC against E. coli MP-74 LptD mutant; conditions: Escherichia coli
[6] = tested on: S. aureus MP-513 clinical cErm; assay: MIC against S. aureus MP-513 clinical cErm; conditions: Staphylococcus aureus
K. pneumoniae ATCC 10031 = assay: MIC against K. pneumoniae ATCC 10031; conditions: Klebsiella pneumoniae, ATCC10031
P. aeruginosa ATCC 27853 = assay: MIC against P. aeruginosa ATCC 27853; conditions: Pseudomonas aeruginosa, ATCC27853
C. difficile BAA 1805 = assay: MIC against C. difficile BAA 1805; conditions: Clostridioides difficile, BAA1805
[7] = ATCC29213, S. aureus ATCC 29213, read-out: MIC
[8] = H. influenzae ATCC 49247, read-out: MIC
[9] = E. coli ATCC 25922, read-out: MIC
[10] = S. pneumoniae ATCC 49619, read-out: MIC

Row | SMILES | MIC (S. aureus ATCC 29213; [7]) [µg/mL] | MIC (S. aureus BAA 977 iErmA) [µg/mL] | MIC [1] [µg/mL] | MIC (S. pneumoniae ATCC 49619; [10]) [µg/mL] | MIC (S. pyogenes ATCC 19615) [µg/mL] | MIC (E. coli MP-9 ΔTolC) [µg/mL] | MIC [5] [µg/mL] | MIC (K. pneumoniae ATCC 10031) [µg/mL] | MIC (E. coli ATCC 25922) [µg/mL] | MIC (H. influenzae ATCC 49247) [µg/mL] | also measured
1 | CSC1O[C@H]([C@H](NC(=O)[C@H]2NC[C@@H]3C=C(c4ccccc4F)CCO[C@@H]23)[C@H](C)Cl)C(O)[C@@H](O)[C@H]1O (some centres unmarked) [FSA-511073] | 1 (≈ 1.88 µM) | 1 (≈ 1.88 µM) | 1 (≈ 1.88 µM) |  |  |  |  |  |  |  | MIC (S. aureus MMX 3035 cErmA): > 64 µg/mL; MIC [2]: 12 µg/mL (≈ 22.6 µM); MIC [3]: > 64 µg/mL; MIC (E. faecalis ATCC 29212; ATCC29212, read-out: MIC): 4 µg/mL (≈ 7.53 µM); MIC [4]: > 64 µg/mL; MIC (H. influenzae ATCC 49247; [8]): > 64 µg/mL; MIC (E. coli ATCC 25922; [9]): > 64 µg/mL
2 | COc1ccc(C2CCO[C@@H]3[C@H](CN[C@@H]3C(=O)N[C@H]([C@H](C)Cl)[C@H]3OC(SC)[C@H](O)[C@H](O)C3O)C2)cc1 (some centres unmarked) [FSA-511045] | 0.3 (≈ 0.55 µM) |  |  | ≤ 0.06 | ≤ 0.06 | 8 (≈ 14.7 µM) | 37 (≈ 67.9 µM) |  |  |  | MIC (E. faecalis ATCC 29212; ATCC29212, read-out: MIC): 1 µg/mL (≈ 1.83 µM); MIC (E. coli ATCC 15922): > 64 µg/mL
3 | CSC1O[C@H]([C@H](NC(=O)[C@H]2NC[C@@H]3C[C@@H](c4ccc(C#N)cc4)CCO[C@H]32)[C@H](C)Cl)C(O)[C@@H](O)[C@H]1O (some centres unmarked) [FSA-512081a] |  | 1 (≈ 1.85 µM) |  |  |  |  |  |  |  |  | MIC [2]: ≤ 0.06 µg/mL
4 | CSC1O[C@H]([C@H](NC(=O)[C@H]2NC[C@@H]3CN(CC(=O)O)CCO[C@H]32)[C@H](C)Cl)C(O)[C@@H](O)[C@H]1O (some centres unmarked) [FSA-504063] |  |  |  |  |  | > 64 |  | > 64 | > 64 |  | MIC (S. aureus ATCC 29213; ATCC29213): > 64 µg/mL; MIC [6]: > 64 µg/mL; MIC (P. aeruginosa ATCC 27853): > 64 µg/mL
5 | CSC1O[C@H]([C@H](NC(=O)[C@H]2NC[C@@H]3CN(C(=N)N)CCO[C@H]32)[C@H](C)Cl)C(O)[C@@H](O)[C@H]1O (some centres unmarked) [FSA-504057] |  |  |  |  |  | > 64 |  | > 64 | > 64 |  | MIC (S. aureus ATCC 29213; ATCC29213): > 64 µg/mL; MIC [6]: > 64 µg/mL; MIC (P. aeruginosa ATCC 27853): > 64 µg/mL
6 | CSC1O[C@H]([C@H](NC(=O)[C@H]2NC[C@@H]3C[C@H](c4ccc(C#N)cc4)CCO[C@H]32)[C@H](C)Cl)C(O)[C@@H](O)[C@H]1O (some centres unmarked) [FSA-512081b] |  | 1 (≈ 1.85 µM) | 1 (≈ 1.85 µM) | ≤ 0.06 | ≤ 0.06 | 8 (≈ 14.8 µM) | 37 (≈ 68.5 µM) |  |  |  | MIC (E. faecalis ATCC 29212; ATCC29212, read-out: MIC): 1 µg/mL (≈ 1.85 µM)
7 | CSC1O[C@H]([C@H](NC(=O)[C@H]2NC[C@@H]3CC=CCO[C@@H]32)[C@H](C)Cl)C(O)[C@@H](O)[C@H]1O (some centres unmarked) [FSA-504059] | 2 (≈ 4.58 µM) |  | 2 (≈ 4.58 µM) |  |  | > 64 | > 64 | > 64 | > 64 | > 64 | 
8 | CSC1O[C@H]([C@H](NC(=O)[C@H]2NC[C@@H]3C=C(c4cccc(F)c4)CCO[C@@H]23)[C@H](C)Cl)C(O)[C@@H](O)[C@H]1O (some centres unmarked) [FSA-511071] | 2 (≈ 3.77 µM) | 2 (≈ 3.77 µM) | 1 (≈ 1.88 µM) |  | 0.5 (≈ 0.942 µM) |  |  |  |  |  | MIC (S. aureus MMX 3035 cErmA): > 64 µg/mL; MIC [2]: 0.5 µg/mL (≈ 0.942 µM); MIC [3]: > 64 µg/mL; MIC (E. faecalis ATCC 29212; ATCC29212, read-out: MIC): 4 µg/mL (≈ 7.53 µM); MIC [4]: > 64 µg/mL; MIC (H. influenzae ATCC 49247; [8]): > 64 µg/mL; MIC (E. coli ATCC 25922; [9]): > 64 µg/mL
9 | CSC1O[C@H]([C@H](NC(=O)[C@H]2NC[C@@H]3C[C@@H](C4CCNCC4)CCO[C@H]32)[C@H](C)Cl)C(O)[C@@H](O)[C@H]1O (some centres unmarked) [FSA-512011] | 8 (≈ 15.3 µM) |  | 8 (≈ 15.3 µM) | 1 (≈ 1.92 µM) | 4 (≈ 7.66 µM) | > 256 | > 256 |  | > 256 | > 256 | 
10 | CSC1O[C@H]([C@H](NC(=O)[C@H]2NC[C@@H]3CC(N)CCO[C@H]32)[C@H](C)Cl)C(O)[C@@H](O)[C@H]1O (some centres unmarked) [FSA-510012] |  | > 64 | > 64 |  |  | > 64 | > 64 | > 64 | > 64 | > 64 | MIC (S. aureus ATCC 29213; ATCC29213): > 64 µg/mL; MIC (S. pneumoniae ATCC 49619): > 64 µg/mL; MIC (E. faecalis ATCC 29212; ATCC29212): > 64 µg/mL; MIC (C. difficile BAA 1805): > 64 µg/mL
11 | CNC1CCO[C@@H]2[C@H](CN[C@@H]2C(=O)N[C@H]([C@H](C)Cl)[C@H]2OC(SC)[C@H](O)[C@H](O)C2O)C1 (some centres unmarked) [FSA-510065] |  | > 64 | > 64 |  |  | > 64 | > 64 | > 64 | > 64 | > 64 | MIC (S. aureus ATCC 29213; ATCC29213): > 64 µg/mL; MIC (S. pneumoniae ATCC 49619): > 64 µg/mL; MIC (E. faecalis ATCC 29212; ATCC29212): > 64 µg/mL; MIC (C. difficile BAA 1805): > 64 µg/mL
12 | CSC1O[C@H]([C@H](NC(=O)[C@H]2NC[C@@H]3CCCCO[C@@H]32)[C@H](C)Cl)C(O)[C@@H](O)[C@H]1O (some centres unmarked) [FSA-504062] | 2 (≈ 4.56 µM) |  | 1 (≈ 2.28 µM) |  |  | > 64 | > 64 | > 64 | > 64 | > 64 | 
13 | CSC1O[C@H]([C@H](NC(=O)[C@H]2NC[C@@H]3CN(Cc4ccc(N)nc4)CCO[C@H]32)[C@H](C)Cl)C(O)[C@@H](O)[C@H]1O (some centres unmarked) [FSA-504050] |  |  |  |  |  | > 64 |  | > 64 | > 64 |  | MIC [6]: > 64 µg/mL; MIC (P. aeruginosa ATCC 27853): > 64 µg/mL
14 | CSC1O[C@H]([C@H](NC(=O)[C@H]2NC[C@@H]3CC(NC4CC4)CCO[C@H]32)[C@H](C)Cl)C(O)[C@@H](O)[C@H]1O (some centres unmarked) [FSA-510011] |  |  |  | 8 (≈ 16.2 µM) | 2 (≈ 4.05 µM) | > 64 | > 64 | > 64 | > 64 | > 64 | MIC (E. faecalis ATCC 29212; ATCC29212): > 64 µg/mL
15 | C=CCOC(=O)N1CCO[C@@H]2[C@H](CN[C@@H]2C(=O)N[C@H]([C@H](C)Cl)[C@H]2OC(SC)[C@H](O)[C@H](O)C2O)C1 (some centres unmarked) [FSA-503073] |  |  |  |  |  | > 64 |  | > 64 | > 64 |  | MIC [6]: > 64 µg/mL; MIC (P. aeruginosa ATCC 27853): > 64 µg/mL
16 | CSC1O[C@H]([C@H](NC(=O)[C@H]2NC[C@@H]3CC(c4ccc(-c5ccccc5)cc4)=CCO[C@H]32)[C@H](C)Cl)C(O)[C@@H](O)[C@H]1O (some centres unmarked) [FSA-510001] | 2 (≈ 3.39 µM) | 2 (≈ 3.39 µM) |  | 4 (≈ 6.79 µM) | 2 (≈ 3.39 µM) | > 64 | 8 (≈ 13.6 µM) | > 64 | > 64 |  | MIC (E. faecalis ATCC 29212; ATCC29212): 8 µg/mL (≈ 13.6 µM)
17 | CSC1O[C@H]([C@H](NC(=O)[C@H]2NC[C@@H]3C[C@@H](C4CCN(C)CC4)CCO[C@H]32)[C@H](C)Cl)C(O)[C@@H](O)[C@H]1O (some centres unmarked) [FSA-512012] | 8 (≈ 14.9 µM) |  | 8 (≈ 14.9 µM) | 1 (≈ 1.87 µM) | 4 (≈ 7.46 µM) | > 256 | > 256 |  | > 256 | > 256 | 
